Assays:
Experiment in all cases: Test E pre-/postemergence herbicide test
common chickweed = type: in vivo, Stellaria media
Text: (§1) Seeds of plant species selected from bipinnate beggarticks (Bidens bipinnata L.), hairy beggarticks (Bidens radiata Thuill.), bermudagrass (Cynodon dactylon (L.) Pers.), Surinam grass (Urochloa decumbens (Staph) R. D. Webster, previously named Brachiaria decumbens Stapf), large crabgrass (Digitaria sanguinalis (L.) Scop.), green foxtail (Setaria viridis (L.) P. Beauv.), goosegrass (Eleusine indica (L.) Gaertn.), johnsongrass (Sorghum halepense (L.) Pers.), kochia (Kochia scoparia (L.) Schrad.), pitted morningglory (Ipomoea lacunosa L.), purple nutsedge (Cyperus rotundus L.), common ragweed (Ambrosia elatior L.), mustard (Brassica nigra (L.) W. D. J. Koch), guineagrass (Panicum maximum Jacq.), dallisgrass (Paspalum dilatatum Poir.), barnyardgrass (Echinochloa crus-galli (L). P. Beauv.), southern sandbur (Cenchrus echinatus L.), common sowthistle (Sonchus oleraceous L.), prickly sida (Sida spinosa L.), Italian ryegrass (Lolium multiflorum Lam.), common purslane (Portulaca oleracea L.), broadleaf signalgrass (Brachiaria platyphylla (Griseb.) Nash), common groundsel (Senecio vulgaris L.), common chickweed (Stellaria media (L.) Vill/Cyr.), tropical spiderwort (Commelina benghalensis L.), annual bluegrass (Poa annua L.), downy bromegrass (Bromus tectorum L.), itchgrass (Rottboellia cochinchinensis (L.) L.f.), quackgrass (Elytrigia repens (L.) Nevski), Canada horseweed (Erigeron Canadensis L.), field bindweed (Convolvulus arvensis L.), spotted spurge (Euphorbia maculata L.), common mallow (Malva sylvestris (=s silvestris) L.), and Russian thistle (Salsola kali L. ssp. Ruthenica (Iljin) Soo) were planted and treated preemergence with test chemicals formulated in a non-phytotoxic solvent mixture which included a surfactant.
(§2) At the same time, plants selected from these weed species were treated with postemergence applications of some of the test chemicals formulated in the same manner. Plants ranged in height from 2 to 18 cm (1- to 4-leaf stage) for postemergence treatments. Treated plants and controls were maintained in a greenhouse for 12 to 14 days, after which time all species were compared to controls and visually evaluated. Plant response ratings, summarized in Table E, are based on a scale of 0 to 100 where 0 is no effect and 100 is complete control. A dash (-) response means no test result.

tropical spiderwort = type: in vivo, Commelina benghalensis
Text: as §1, §2

downy bromegrass = type: in vivo, Bromus tectorum
Text: as §1, §2

goosegrass = type: in vivo, Eleusine indica
Text: as §1, §2

green foxtail = type: in vivo, Setaria viridis
Text: as §1, §2

Canada horseweed = type: in vivo, Erigeron Canadensis
Text: as §1, §2

kochia = type: in vivo, Kochia scoparia; details: Preemergence
Text: as §1, §2

purple nutsedge = type: in vivo, Cyperus rotundus
Text: as §1, §2

field bindweed = type: in vivo, Convolvulus arvensis
Text: as §1, §2

annual bluegrass = type: in vivo, Poa annua
Text: as §1, §2

[1] = Postemergence, 500 g ai/ha, scale 0 to 100
[2] = Postemergence, 250 g ai/ha, scale 0 to 100
[3] = Preemergence, 62 g ai/ha, scale 0 to 100
[4] = Preemergence, 125 g ai/ha, scale 0 to 100
[5] = Preemergence, 250 g ai/ha, scale 0 (no effect) to 100 (complete control)
[6] = Preemergence, 500 g ai/ha, scale 0 (no effect) to 100 (complete control)
[7] = postemergence, 62 g ai/ha, scale 0 to 100
[8] = postemergence, 125 g ai/ha, scale 0 to 100
[9] = 250 g ai/ha, scale 0 (no effect) to 100 (complete control)
[10] = 500 g ai/ha, scale 0 (no effect) to 100 (complete control)

CCNC(=O)c1ccc(F)c(NC(=O)c2cn(C(C)(C)C)nc2CC)c1 [Compound 193]
Plant response rating, Chickweed (common chickweed; [1]): 100
Plant response rating, Chickweed (common chickweed; [2]): 95
Plant response rating, Chickweed (common chickweed; [3]): 80
Plant response rating, Chickweed (common chickweed; [4]): 100
Plant response rating, Chickweed (common chickweed; [5]): 100
Plant response rating, Chickweed (common chickweed; [6]): 100
Plant response rating, Chickweed (common chickweed; [7]): 40
Plant response rating, Spiderwort (tropical spiderwort; [1]): 70
Plant response rating, Spiderwort (tropical spiderwort; [2]): 50
Plant response rating, Spiderwort (tropical spiderwort; [4]): 80
Plant response rating, Spiderwort (tropical spiderwort; [5]): 90
Plant response rating, Spiderwort (tropical spiderwort; [6]): 95
Plant response rating, Spiderwort (tropical spiderwort; [8]): 20
Plant response rating, Bromegrass, Downy (downy bromegrass; [1]): 80
Plant response rating, Bromegrass, Downy (downy bromegrass; [2]): 70
Plant response rating, Bromegrass, Downy (downy bromegrass; [3]): 10
Plant response rating, Bromegrass, Downy (downy bromegrass; [4]): 30
Plant response rating, Bromegrass, Downy (downy bromegrass; [5]): 80
Plant response rating, Bromegrass, Downy (downy bromegrass; [6]): 90
Plant response rating, Bromegrass, Downy (downy bromegrass; [8]): 30
Plant response rating, Bromegrass, Downy (downy bromegrass; [7]): 20
Plant response rating, Goosegrass (goosegrass; [1]): 85
Plant response rating, Goosegrass (goosegrass; [2]): 80
Plant response rating, Goosegrass (goosegrass; [3]): 30
Plant response rating, Goosegrass (goosegrass; [4]): 80
Plant response rating, Goosegrass (goosegrass; [5]): 90
Plant response rating, Goosegrass (goosegrass; [6]): 95
Plant response rating, Goosegrass (goosegrass; [8]): 70
Plant response rating, Goosegrass (goosegrass; [7]): 20
Plant response rating, Foxtail, Green (green foxtail; [1]): 90
Plant response rating, Foxtail, Green (green foxtail; [2]): 50
Plant response rating, Foxtail, Green (green foxtail; [3]): 10
Plant response rating, Foxtail, Green (green foxtail; [4]): 30
Plant response rating, Foxtail, Green (green foxtail; [5]): 80
Plant response rating, Foxtail, Green (green foxtail; [6]): 100
Plant response rating, Foxtail, Green (green foxtail; [8]): 20
Plant response rating, Foxtail, Green (green foxtail; [7]): 10
Plant response rating, Horseweed (Canada horseweed; [1]): 90
Plant response rating, Horseweed (Canada horseweed; [2]): 70
Plant response rating, Horseweed (Canada horseweed; [3]): 80
Plant response rating, Horseweed (Canada horseweed; [4]): 100
Plant response rating, Horseweed (Canada horseweed; [5]): 100
Plant response rating, Horseweed (Canada horseweed; [6]): 100
Plant response rating, Horseweed (Canada horseweed; [8]): 50
Plant response rating, Horseweed (Canada horseweed; [7]): 50
Plant response rating, Kochia (kochia; 62 g ai/ha, scale 0 to 100): 100
Plant response rating, Kochia (kochia; 125 g ai/ha, scale 0 to 100): 100
Plant response rating, Kochia (kochia; [9]): 100
Plant response rating, Kochia (kochia; [10]): 100
Plant response rating, Nutsedge, Purple (purple nutsedge; [1]): 70
Plant response rating, Nutsedge, Purple (purple nutsedge; [2]): 40
Plant response rating, Nutsedge, Purple (purple nutsedge; [3]): 0
Plant response rating, Nutsedge, Purple (purple nutsedge; [4]): 30
Plant response rating, Nutsedge, Purple (purple nutsedge; [5]): 50
Plant response rating, Nutsedge, Purple (purple nutsedge; [6]): 80
Plant response rating, Nutsedge, Purple (purple nutsedge; [8]): 20
Plant response rating, Nutsedge, Purple (purple nutsedge; [7]): 0
Plant response rating, Bindweed, Field (field bindweed; [1]): 50
Plant response rating, Bindweed, Field (field bindweed; [2]): 50
Plant response rating, Bindweed, Field (field bindweed; [3]): 50
Plant response rating, Bindweed, Field (field bindweed; [4]): 50
Plant response rating, Bindweed, Field (field bindweed; [5]): 80
Plant response rating, Bindweed, Field (field bindweed; [6]): 85
Plant response rating, Bindweed, Field (field bindweed; [7]): 20
Plant response rating, Bluegrass (annual bluegrass; [1]): 85
Plant response rating, Bluegrass (annual bluegrass; [2]): 70
Plant response rating, Bluegrass (annual bluegrass; [3]): 80
Plant response rating, Bluegrass (annual bluegrass; [4]): 100
Plant response rating, Bluegrass (annual bluegrass; [5]): 100
Plant response rating, Bluegrass (annual bluegrass; [6]): 100
Plant response rating, Bluegrass (annual bluegrass; [8]): 50
Plant response rating, Bluegrass (annual bluegrass; [7]): 20

CCc1nn(C(C)(C)C)cc1C(=O)Nc1cc(C(=O)N(C)C)ccc1F [Compound 222, N-[5-[(dimethylamino)carbonyl]-2-fluorophenyl]-1-(1,1-dimethylethyl)-3-ethyl-1H-pyrazole-4-carboxamide]
Plant response rating, Chickweed (common chickweed; [1]): 100
Plant response rating, Chickweed (common chickweed; [2]): 100
Plant response rating, Chickweed (common chickweed; [3]): 80
Plant response rating, Chickweed (common chickweed; [4]): 100
Plant response rating, Chickweed (common chickweed; [5]): 100
Plant response rating, Chickweed (common chickweed; [6]): 100
Plant response rating, Chickweed (common chickweed; [8]): 100
Plant response rating, Chickweed (common chickweed; [7]): 80
Plant response rating, Spiderwort (tropical spiderwort; [2]): 60
Plant response rating, Spiderwort (tropical spiderwort; [6]): 95
Plant response rating, Spiderwort (tropical spiderwort; [8]): 40
Plant response rating, Bromegrass, Downy (downy bromegrass; [2]): 80
Plant response rating, Bromegrass, Downy (downy bromegrass; [3]): 30
Plant response rating, Bromegrass, Downy (downy bromegrass; [4]): 90
Plant response rating, Bromegrass, Downy (downy bromegrass; [5]): 90
Plant response rating, Bromegrass, Downy (downy bromegrass; [6]): 100
Plant response rating, Bromegrass, Downy (downy bromegrass; [8]): 50
Plant response rating, Bromegrass, Downy (downy bromegrass; [7]): 10
Plant response rating, Goosegrass (goosegrass; [1]): 90
Plant response rating, Goosegrass (goosegrass; [2]): 90
Plant response rating, Goosegrass (goosegrass; [3]): 60
Plant response rating, Goosegrass (goosegrass; [4]): 75
Plant response rating, Goosegrass (goosegrass; [5]): 90
Plant response rating, Goosegrass (goosegrass; [6]): 95
Plant response rating, Goosegrass (goosegrass; [8]): 75
Plant response rating, Goosegrass (goosegrass; [7]): 60
Plant response rating, Foxtail, Green (green foxtail; [2]): 80
Plant response rating, Foxtail, Green (green foxtail; [3]): 10
Plant response rating, Foxtail, Green (green foxtail; [4]): 50
Plant response rating, Foxtail, Green (green foxtail; [5]): 100
Plant response rating, Foxtail, Green (green foxtail; [6]): 100
Plant response rating, Foxtail, Green (green foxtail; [8]): 40
Plant response rating, Foxtail, Green (green foxtail; [7]): 10
Plant response rating, Horseweed (Canada horseweed; [1]): 100
Plant response rating, Horseweed (Canada horseweed; [2]): 90
Plant response rating, Horseweed (Canada horseweed; [3]): 100
Plant response rating, Horseweed (Canada horseweed; [4]): 100
Plant response rating, Horseweed (Canada horseweed; [5]): 100
Plant response rating, Horseweed (Canada horseweed; [6]): 100
Plant response rating, Horseweed (Canada horseweed; [8]): 40
Plant response rating, Horseweed (Canada horseweed; [7]): 20
Plant response rating, Kochia (kochia; 62 g ai/ha, scale 0 to 100): 30
Plant response rating, Kochia (kochia; 125 g ai/ha, scale 0 to 100): 100
Plant response rating, Kochia (kochia; [9]): 100
Plant response rating, Kochia (kochia; [10]): 100
Plant response rating, Nutsedge, Purple (purple nutsedge; [2]): 30
Plant response rating, Nutsedge, Purple (purple nutsedge; [3]): 10
Plant response rating, Nutsedge, Purple (purple nutsedge; [4]): 40
Plant response rating, Nutsedge, Purple (purple nutsedge; [5]): 70
Plant response rating, Nutsedge, Purple (purple nutsedge; [6]): 80
Plant response rating, Nutsedge, Purple (purple nutsedge; [8]): 10
Plant response rating, Nutsedge, Purple (purple nutsedge; [7]): 10
Plant response rating, Bindweed, Field (field bindweed; [2]): 95
Plant response rating, Bindweed, Field (field bindweed; [4]): 40
Plant response rating, Bindweed, Field (field bindweed; [5]): 95
Plant response rating, Bindweed, Field (field bindweed; [6]): 95
Plant response rating, Bindweed, Field (field bindweed; [8]): 75
Plant response rating, Bindweed, Field (field bindweed; [7]): 60
Plant response rating, Bluegrass (annual bluegrass; [1]): 90
Plant response rating, Bluegrass (annual bluegrass; [2]): 90
Plant response rating, Bluegrass (annual bluegrass; [3]): 90
Plant response rating, Bluegrass (annual bluegrass; [4]): 100
Plant response rating, Bluegrass (annual bluegrass; [5]): 100
Plant response rating, Bluegrass (annual bluegrass; [6]): 100
Plant response rating, Bluegrass (annual bluegrass; [8]): 80
Plant response rating, Bluegrass (annual bluegrass; [7]): 60

From patent US20060069132A1, “Azolecarboxamide herbicides” (priority 2004, published 2006)
